pIC50: −log10 of the molar value.
Assays:
p38 MAP kinase β = molecular target: T1, p38 MAP kinase β (Homo sapiens, UniProt Q15759); assay: Promega CMGC-1 kinase selectivity profiling system, ADP-Glo kinase assay; format: biochemical
T1 construct: gene MAPK11

p38 MAP kinase α = molecular target: T2, p38 MAP kinase α (Homo sapiens, UniProt Q16539); assay: as above; format: biochemical
T2 construct: gene MAPK14
T2 sequence (Q16539 2-360): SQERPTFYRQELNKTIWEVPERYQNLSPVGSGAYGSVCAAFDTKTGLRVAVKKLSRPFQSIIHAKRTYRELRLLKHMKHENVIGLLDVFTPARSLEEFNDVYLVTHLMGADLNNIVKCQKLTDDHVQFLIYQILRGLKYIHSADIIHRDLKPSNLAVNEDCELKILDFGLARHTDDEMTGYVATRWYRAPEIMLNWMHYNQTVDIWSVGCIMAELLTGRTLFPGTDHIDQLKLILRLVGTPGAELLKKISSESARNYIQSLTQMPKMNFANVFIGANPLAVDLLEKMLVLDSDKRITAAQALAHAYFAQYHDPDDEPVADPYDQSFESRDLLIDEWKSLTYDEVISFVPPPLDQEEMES

T1 sequence (Q15759 whole entry): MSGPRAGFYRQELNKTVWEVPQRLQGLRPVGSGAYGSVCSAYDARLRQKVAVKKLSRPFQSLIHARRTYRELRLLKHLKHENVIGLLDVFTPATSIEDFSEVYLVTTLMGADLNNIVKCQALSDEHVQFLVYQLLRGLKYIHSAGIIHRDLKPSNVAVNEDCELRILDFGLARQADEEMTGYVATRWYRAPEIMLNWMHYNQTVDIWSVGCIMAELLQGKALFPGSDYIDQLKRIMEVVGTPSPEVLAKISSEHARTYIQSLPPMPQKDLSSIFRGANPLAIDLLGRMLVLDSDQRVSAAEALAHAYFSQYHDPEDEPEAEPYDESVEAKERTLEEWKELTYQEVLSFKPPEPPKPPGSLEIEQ

O=C(/C=C/c1ccc(O)c(O)c1)NCCc1c[nH]c2ccccc12 [N-caffeoyltryptamine]
pIC50 (p38 MAP kinase β): 4.74 | pIC50 (p38 MAP kinase α): 4.78

Reference: paper PMC5485972, “N-Caffeoyltryptamine, a Potent Anti-Inflammatory Phenolic Amide, Suppressed MCP-1 Expression in LPS-stimulated THP-1 Cells and Rats Fed a High-Fat Diet” (International Journal of Molecular Sciences, 2017)
